Measurements published in patent publication US11117926B2, “Cholane derivatives for use in the treatment and/or prevention of FXR and TGR5/GPBAR1 mediated diseases” (BAR PHARMACEUTICALS S.R.L., priority 2014, dated 2021).

What was measured:
[1] = not given; remark: listed apart in the source
[2] = biological target: T1, FXR (Homo sapiens, UniProt Q96RI1); experiment: FXR mediated transactivation (luciferase reporter) in transfected HepG2 cells; assay type: cell-based; details: each compound at 10 microM, transactivation activity of CDCA on FXR = 100%
T1 construct: expressed in transfected cells; host or cells: HepG2
T1 sequence (Q96RI1 1-486): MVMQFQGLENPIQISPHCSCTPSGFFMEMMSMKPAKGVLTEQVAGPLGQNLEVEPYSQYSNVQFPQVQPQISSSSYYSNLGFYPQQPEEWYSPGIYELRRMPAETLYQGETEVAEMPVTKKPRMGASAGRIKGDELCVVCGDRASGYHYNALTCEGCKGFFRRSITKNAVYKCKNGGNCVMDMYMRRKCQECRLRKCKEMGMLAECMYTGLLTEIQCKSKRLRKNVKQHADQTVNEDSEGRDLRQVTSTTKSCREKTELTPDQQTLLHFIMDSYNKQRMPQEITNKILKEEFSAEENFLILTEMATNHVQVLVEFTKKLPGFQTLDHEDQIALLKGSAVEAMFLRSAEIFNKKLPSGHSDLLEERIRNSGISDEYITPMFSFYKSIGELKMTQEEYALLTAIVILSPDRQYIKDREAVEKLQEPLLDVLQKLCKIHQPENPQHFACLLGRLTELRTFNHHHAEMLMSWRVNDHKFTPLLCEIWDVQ
T1 sequence (P19793 1-462 partner): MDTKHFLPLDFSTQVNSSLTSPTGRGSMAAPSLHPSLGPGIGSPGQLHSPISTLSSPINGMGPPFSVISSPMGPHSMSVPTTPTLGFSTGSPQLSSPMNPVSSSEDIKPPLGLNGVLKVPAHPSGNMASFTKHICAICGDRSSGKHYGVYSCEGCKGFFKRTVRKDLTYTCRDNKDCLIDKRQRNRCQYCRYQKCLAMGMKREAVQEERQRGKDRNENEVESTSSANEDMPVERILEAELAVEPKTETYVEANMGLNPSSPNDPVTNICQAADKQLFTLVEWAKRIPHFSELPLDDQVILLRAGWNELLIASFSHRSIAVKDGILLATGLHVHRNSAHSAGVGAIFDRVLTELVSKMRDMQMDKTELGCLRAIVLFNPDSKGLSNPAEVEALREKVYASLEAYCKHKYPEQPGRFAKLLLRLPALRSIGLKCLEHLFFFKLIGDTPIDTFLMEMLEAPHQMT
Procedure: (§1) Each compound was tested at the concentration of 10 microM and transactivation activity of CDCA on FXR and TLCA on CRE (i.e. TGR5/GPBAR1) was considered equal to 100%.
(§2) Biological Activities. Activity of selected compounds was tested in vitro using a whole cell model transfected with a reporter genes to establish selectivity of compounds shown in table 1 toward FXR and TGR5/GPBAR1 in comparison with chenodeoxycholic acid (CDCA) and TLCA. CDCA is a primary bile acid that functions as an endogenous ligand for FXR, while TLCA is a physiological ligand for TGR5/GPBAR1. In this assay, HepG2 cells (a liver-derived cell line) were cultured at 37° C. in minimum essential medium with Earl's salts containing 10% fetal bovine serum (FBS), 1% L-glutamine, and 1% penicillin/streptomycin. […] The transfection experiments were performed using Fugene HD according to manufactured specifications. Cells were plated in a 24-well plate at 5×10^4 cells/well. For FXR mediated transactivation, HepG2 cells were transfected with 100 ng of pSG5-FXR, 100 ng of pSG5-RXR, 100 ng of pGL4.70 a vector encoding the human Renilla gene and 250 ng of the reporter vector p(hsp27)-TK-LUC containing the FXR response element IR1 cloned from the promoter of heat shock protein 27 (hsp27).
(§3) At 24 h post-transfection, cells were stimulated for 18 h with 10 μM TLCA as a control agent or putative GPBAR1 agonists as the same concentration. After treatments, cells were lysed in 100 μL of lysis buffer (25 mM Tris-phosphate, pH 7.8; 2 mM DTT; 10% glycerol; 1% Triton X-100), and 20 μL of cellular lysate was assayed for luciferase activity using the luciferase assay system. Luminescence was measured using Glomax 20/20 luminometer. Luciferase activities were normalized against Renilla activities. Antagonism against FXR of GPBAR1/TGR5 was measured as percent of activity in transactivation assay suing activity of TLCA as example of agonism.

[3] = biological target: T2, human GPBAR1 (Homo sapiens, UniProt Q8TDU6); experiment: GPBAR1 mediated transactivation (CRE luciferase reporter) in transfected HEK-293T cells; assay type: cell-based; details: each compound at 10 microM, transactivation activity of TLCA on CRE = 100%
T2 construct: expressed in transfected cells; host or cells: HEK-293T
T2 sequence (Q8TDU6 1-330): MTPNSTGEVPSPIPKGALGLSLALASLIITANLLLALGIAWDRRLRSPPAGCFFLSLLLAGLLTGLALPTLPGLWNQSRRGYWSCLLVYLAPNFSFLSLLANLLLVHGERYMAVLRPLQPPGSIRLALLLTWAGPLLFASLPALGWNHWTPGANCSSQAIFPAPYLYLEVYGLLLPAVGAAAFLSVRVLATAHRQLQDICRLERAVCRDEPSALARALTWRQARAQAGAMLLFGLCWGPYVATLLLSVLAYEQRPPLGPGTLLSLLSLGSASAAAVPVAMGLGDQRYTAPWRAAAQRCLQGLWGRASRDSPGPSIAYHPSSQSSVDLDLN
Procedure: as §1, §2, §3

[4] = test system: sea lamprey (Petromyzon marinus); details: cited from earlier work
[5] = biological target: T3, intestinal bile acid carrier (Homo sapiens, UniProt Q12908); details: CaCo-2 cells; cited from earlier work
T3 construct: host or cells: CaCo-2
T3 sequence (Q12908 1-348): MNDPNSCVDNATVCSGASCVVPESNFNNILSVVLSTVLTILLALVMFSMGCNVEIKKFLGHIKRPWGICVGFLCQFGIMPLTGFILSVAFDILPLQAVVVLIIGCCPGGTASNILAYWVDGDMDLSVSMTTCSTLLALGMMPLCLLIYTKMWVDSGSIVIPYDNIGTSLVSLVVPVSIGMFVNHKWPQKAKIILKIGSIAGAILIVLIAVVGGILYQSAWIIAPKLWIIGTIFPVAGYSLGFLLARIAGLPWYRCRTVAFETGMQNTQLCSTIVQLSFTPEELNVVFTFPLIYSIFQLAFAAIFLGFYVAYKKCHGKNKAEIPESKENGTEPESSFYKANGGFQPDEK

[6] = patients suffering from primary biliary cirrhosis (PBC), clinical trials; cited from earlier work
[7] = ANIT or 17α-ethynylestradiol cholestasis models

| SMILES | FXR (% of activity in comparison to 10 μM CDCA) [2] [%] | GPBAR1 (% of activity in comparison to 10 μM TLCA) [3] [%] | further results |
| --- | --- | --- | --- |
| CC[C@H]1[C@@H](O)C2C3CC[C@H]([C@H](C)CCO)[C@@]3(C)CCC2[C@@]2(C)CC[C@@H](O)C[C@@H]12 (stereo partly drawn) [BAR502, 6α-ethyl-3α, 7α-dihydroxy-24-nor-5β-cholan-23-ol] | 263.0 ± 32.0 | 74.5 ± 6.4 | bile acid pool (17α-ethynylestradiol model): reshapes bile acid pool; cholestasis (17α-ethynylestradiol model): attenuates cholestasis; itching (mouse, in vivo): without inducing itching; liver expression of canonical FXR target genes including OSTα, BSEP, SHP and MDR1 [1, 7]: robustly modulates; serum alkaline phosphatase levels [1, 7]: attenuates; survival [1, 7]: increases survival; itching (pruritus) ([1]; mouse, in vivo): does not induce itching |
| C[C@H](CCCOS(=O)(=O)O)[C@H]1CCC2C3CC[C@@H]4CCCC[C@]4(C)C3CC[C@@]21C (stereo partly drawn) [BAR407] | 177.1 ± 3.5 | 37.3 ± 2.5 | olfactory response [4]: did not to elicit an olfactory response |
| CC[C@H]1[C@@H](O)C2C3CC[C@H]([C@H](C)CC#N)[C@@]3(C)CCC2[C@@]2(C)CC[C@@H](O)C[C@@H]12 (stereo partly drawn) [BAR506, 6α-ethyl-3α,7α-dihydroxy-24-nor-5β-cholan-23-nitrile] | 411.5 ± 36.5 | 80.9 ± 9.5 | – |
| C[C@H](CC(=O)O)[C@H]1CCC2C3CC[C@@H]4CCCC[C@]4(C)C3CC[C@@]21C (stereo partly drawn) [BARn406] | 27.0 ± 1.5 | 4.8 ± 1.8 | ability to inhibit taurocholic acid transport [5]: undetectable |
| CC[C@H]1[C@@H](O)[C@@H]2[C@H](CC[C@]3(C)[C@@H]([C@H](C)CCCO)CC[C@@H]23)[C@@]2(C)CC[C@H](O)C[C@@H]12 [BAR706, 6α-ethyl-3β,7α-dihydroxy-5β-cholan-24-ol] | 153 ± 9.0 | 66.05 ± 7.6 | – |
| CC[C@H]1[C@@H](O)C2C3CC[C@H]([C@H](C)CCCCC(=O)O)[C@@]3(C)CCC2[C@@]2(C)CC[C@@H](O)C[C@@H]12 (stereo partly drawn) [BAR802, 6α-ethyl-3α, 7α-dihydroxy-25, 26-bishomo-5β-cholan-26-oic acid] | 11.5 ± 8.5 | 56 ± 5.0 | – |
| CC[C@H]1[C@@H](O)[C@@H]2[C@H](CC[C@]3(C)[C@@H]([C@H](C)CCCO)CC[C@@H]23)[C@@]2(C)CCCC[C@@H]12 [BAR701, 6α-ethyl-7α-hydroxy-5β-cholan-24-ol] | 101.3 ± 10.1 | 50.2 ± 2.3 | – |
| CC[C@@H]1[C@H](O)[C@@H]2[C@H](CC[C@]3(C)[C@@H]([C@H](C)CCCO)CC[C@@H]23)[C@@]2(C)CCCC[C@@H]12 [BAR702, 6β-ethyl-7β-hydroxy-5β-cholan-24-ol] | 11.7 ± 0.8 | 35.8 ± 1.2 | – |
| CC[C@H]1[C@@H](O)[C@@H]2[C@H](CC[C@]3(C)[C@@H]([C@H](C)CCC(=O)O)CC[C@@H]23)[C@@]2(C)CCCC[C@@H]12 [BAR704, 6α-ethyl-7α-hydroxy-5β-cholan-24-oic acid] | 220.5 ± 37.5 | 27.9 ± 6.3 | – |
| CC[C@H]1[C@@H](O)C2C3CC[C@H]([C@H](C)CCO)[C@@]3(C)CCC2[C@@]2(C)CC[C@H](O)C[C@@H]12 (stereo partly drawn) [BARn706, 6α-ethyl-3β,7α-dihydroxy-24-nor-5β-cholan-23-ol] | 197.5 ± 4.5 | 69.5 ± 6.5 | – |
| CC[C@H]1[C@@H](O)[C@@H]2[C@H](CC[C@]3(C)[C@@H]([C@H](C)CCC(=O)O)CC[C@@H]23)[C@@]2(C)CC[C@@H](O)C[C@@H]12 [obeticholic acid] | – | – | patients with severe itching [6]: approximately 80% |
| C[C@H](CCO)[C@H]1CCC2C3C(CC[C@@]21C)[C@@]1(C)CC[C@@H](O)C[C@H]1C[C@@H]3O (stereo partly drawn) [BAR107, 3α,7β-dihydroxy-24-nor-5β-cholan-23-ol] | 1.8 ± 0.3 | 9.9 ± 1.7 | – |
| CC[C@H]1[C@@H](O)C2C3CC[C@H]([C@H](C)CCCO)[C@@]3(C)CCC2[C@@]2(C)CC[C@@H](O)C[C@@H]12 (stereo partly drawn) [BAR504] | 488.5 ± 17.5 | 103.0 ± 12.1 | – |
| CC[C@H]1[C@@H](O)C2C3CC[C@H]([C@H](C)CCCCCO)[C@@]3(C)CCC2[C@@]2(C)CC[C@@H](O)C[C@@H]12 (stereo partly drawn) [BAR803, 6α-ethyl-3α, 7α-dihydroxy-25, 26-bishomo-5β-cholan-26-ol] | 122.5 ± 5.5 | 80.5 ± 5.0 | – |
